Source: ChEMBL document CHEMBL4433224, “Hybridization of Fluoro-amodiaquine (FAQ) with Pyrimidines: Synthesis and Antimalarial Efficacy of FAQ-Pyrimidines” (ACS Med Chem Lett, 2019)
Calls of active or inactive are those of the source. The calls are words filed in the database; no cut-off is given here.

Legend:
CHO = assay: Cytotoxicity in CHO cells assessed as reduction in cell viability; assay type: cell-based; conditions: Cricetulus griseus
in vitro [1] = conditions: hamster, CHO cells versus Plasmodium falciparum NF54
Description: Selectivity index, ratio of IC50 for CHO cells to IC50 for antiplasmodial activity against chloroquine-sensitive Plasmodium falciparum NF54

in vitro [2] = conditions: hamster, CHO cells versus Plasmodium falciparum Dd2
Description: Selectivity index, ratio of IC50 for CHO cells to IC50 for antiplasmodial activity against chloroquine-resistant Plasmodium falciparum Dd2

Plasmodium falciparum [3] = assay: microbe, parasite or virus in culture; conditions: NF54, 48 h
Description: Antiplasmodial activity against chloroquine-sensitive Plasmodium falciparum NF54 incubated for 48 hrs by parasite lactate dehydrogenase assay

Plasmodium falciparum [4] = assay: microbe, parasite or virus in culture; conditions: Dd2, 48 h
Description: Antiplasmodial activity against chloroquine-resistant Plasmodium falciparum Dd2 incubated for 48 hrs by parasite lactate dehydrogenase assay

Plasmodium berghei [5] = assay: Antimalarial activity against Plasmodium berghei infected in mouse assessed as suppression in parasitemia at 33.3 mg/kg, ip dosed once daily on days 0, 1, and 2 days post infection measured on day 5 post infection relative to untreated control; assay type: functional
Plasmodium berghei [6] = assay: Antimalarial activity against Plasmodium berghei infected in mouse assessed as suppression in parasitemia at 11.1 mg/kg, ip dosed once daily on days 0, 1, and 2 days post infection measured on day 5 post infection relative to untreated control; assay type: functional
Plasmodium berghei [7] = assay: Antimalarial activity against Plasmodium berghei infected in mouse assessed as suppression in parasitemia at 33.3 mg/kg, ip dosed once daily on days 0, 1, and 2 days post infection measured on day 7 post infection relative to untreated control; assay type: functional
Plasmodium berghei [8] = assay: Antimalarial activity against Plasmodium berghei infected in mouse assessed as suppression in parasitemia at 11.1 mg/kg, ip dosed once daily on days 0, 1, and 2 days post infection measured on day 7 post infection relative to untreated control; assay type: functional
Plasmodium berghei [9] = assay: Antimalarial activity against Plasmodium berghei infected in mouse assessed as host survival at 33.3 mg/kg, ip dosed once daily on days 0, 1, and 2 days post infection measured on day 28 post infection relative to untreated control; assay type: functional, organism-based
Plasmodium berghei [10] = assay: Antimalarial activity against Plasmodium berghei infected in mouse assessed as mean survival time at 33.3 mg/kg, ip dosed once daily on days 0, 1, and 2 days post infection measured on day 28 post infection (reference value: 13.2 days); assay type: functional
Plasmodium berghei [11] = assay: Antimalarial activity against Plasmodium berghei infected in mouse assessed as mean survival time at 11.1 mg/kg, ip dosed once daily on days 0, 1, and 2 days post infection measured on day 28 post infection (reference value: 13.2 days); assay type: functional
Plasmodium berghei [12] = assay: Antimalarial activity against Plasmodium berghei infected in mouse assessed as parasitemia cure at 11.1 mg/kg, ip dosed once daily on days 0, 1, and 2 days post infection measured on day 28 post infection; assay type: functional, organism-based
Heme [13] = assay: Binding affinity to monomeric heme assessed as decrease in the Soret band at pH 5.6 by spectrophotometric titration analysis
Heme [14] = assay: Binding affinity to monomeric heme assessed as decrease in the Soret band at pH 7.4 by spectrophotometric titration analysis
Heme [15] = assay: Binding affinity to monomeric heme assessed as mole fraction for 1:1 binding stoichiometry with monomeric heme at pH 5.6 by spectrophotometric titration analysis
Heme [16] = assay: Binding affinity to monomeric heme assessed as mole fraction for 1:1 binding stoichiometry with monomeric heme at pH 7.4 by spectrophotometric titration analysis
[17] = Half life human liver microsomes in the presence of NADPH; assay type: ADME, Microsome
[18] = Intrinsic clearance human liver microsomes in the presence of NADPH; assay type: ADME, Microsome; conditions: read-out: CLH
Plasmodium berghei [19] = assay: Antimalarial activity against Plasmodium berghei infected in mouse assessed as suppression in parasitemia at 33.3 mg/kg, po dosed once daily on days 0, 1, and 2 days post infection measured on day 5 post infection relative to untreated control; assay type: functional
Plasmodium berghei [20] = assay: Antimalarial activity against Plasmodium berghei infected in mouse assessed as suppression in parasitemia at 11.1 mg/kg, po dosed once daily on days 0, 1, and 2 days post infection measured on day 5 post infection relative to untreated control; assay type: functional
Plasmodium berghei [21] = assay: Antimalarial activity against Plasmodium berghei infected in mouse assessed as suppression in parasitemia at 33.3 mg/kg, po dosed once daily on days 0, 1, and 2 days post infection measured on day 7 post infection relative to untreated control; assay type: functional
Plasmodium berghei [22] = assay: Antimalarial activity against Plasmodium berghei infected in mouse assessed as suppression in parasitemia at 11.1 mg/kg, po dosed once daily on days 0, 1, and 2 days post infection measured on day 7 post infection relative to untreated control; assay type: functional
Plasmodium berghei [23] = assay: Antimalarial activity against Plasmodium berghei infected in mouse assessed as host survival at 33.3 mg/kg, po dosed once daily on days 0, 1, and 2 days post infection measured on day 28 post infection relative to untreated control; assay type: functional, organism-based
Plasmodium berghei [24] = assay: Antimalarial activity against Plasmodium berghei infected in mouse assessed as host survival at 11.1 mg/kg, po dosed once daily on days 0, 1, and 2 days post infection measured on day 28 post infection relative to untreated control; assay type: functional, organism-based
Plasmodium berghei [25] = assay: Antimalarial activity against Plasmodium berghei infected in mouse assessed as mean survival time at 33.3 mg/kg, po dosed once daily on days 0, 1, and 2 days post infection measured on day 28 post infection (reference value: 13.2 days); assay type: functional
Plasmodium berghei [26] = assay: Antimalarial activity against Plasmodium berghei infected in mouse assessed as mean survival time at 11.1 mg/kg, po dosed once daily on days 0, 1, and 2 days post infection measured on day 28 post infection (reference value: 13.2 days); assay type: functional
Plasmodium berghei [27] = assay: Antimalarial activity against Plasmodium berghei infected in mouse assessed as parasitemia cure at 11.1 mg/kg, po dosed once daily on days 0, 1, and 2 days post infection measured on day 28 post infection; assay type: functional, organism-based
Plasmodium berghei [28] = assay: Antimalarial activity against Plasmodium berghei infected in mouse assessed as parasitemia cure at 33.3 mg/kg, po dosed once daily on days 0, 1, and 2 days post infection measured on day 28 post infection; assay type: functional, organism-based
Plasmodium falciparum [29] = assay: Potency index, ratio of IC50 for chloroquine to IC50 for test compound for antiplasmodial activity against chloroquine-resistant Plasmodium falciparum Dd2 incubated for 48 hrs by parasite lactate dehydrogenase assay; assay type: functional
Plasmodium falciparum [30] = assay: Potency index, ratio of IC50 for artemisinin to IC50 for test compound for antiplasmodial activity against chloroquine-resistant Plasmodium falciparum Dd2 incubated for 48 hrs by parasite lactate dehydrogenase assay; assay type: functional
Plasmodium berghei [31] = assay: Antimalarial activity against Plasmodium berghei infected in mouse assessed as host survival at 11.1 mg/kg, ip dosed once daily on days 0, 1, and 2 days post infection measured on day 28 post infection relative to untreated control; assay type: functional, organism-based
Plasmodium berghei [32] = assay: Antimalarial activity against Plasmodium berghei infected in mouse assessed as parasitemia cure at 33.3 mg/kg, ip dosed once daily on days 0, 1, and 2 days post infection measured on day 28 post infection; assay type: functional, organism-based

Cc1cc(N2CCOCC2)nc(NCc2cc(Nc3ccnc4cc(Cl)ccc34)ccc2F)n1
IC50 (CHO): 4590 nM | selectivity ratio (in vitro [1]): 380 | selectivity ratio (in vitro [2]): 256 | IC50 (Plasmodium falciparum [3]): 12.1 nM | IC50 (Plasmodium falciparum [4]): 17.9 nM

N#Cc1cc(Nc2ccnc3cc(Cl)ccc23)ccc1F
IC50 (Plasmodium falciparum [3]): > 3360 nM | IC50 (Plasmodium falciparum [4]): 3200 nM

Cc1cc(NCc2cc(Nc3ccnc4cc(Cl)ccc34)ccc2F)nc(N2CCN(C)CC2)n1
Activity (Plasmodium berghei [5]): 100% | Activity (Plasmodium berghei [6]): 91.9% | Activity (Plasmodium berghei [7]): 100% | Activity (Plasmodium berghei [8]): 92.9% | Activity (Plasmodium berghei [9]): Active | MST (Plasmodium berghei [10]): 28 days | MST (Plasmodium berghei [11]): 19.8 days | Activity (Plasmodium berghei [12]): inactive | Activity (Heme [13]): Active | Activity (Heme [14]): Active | Activity (mole fraction) (Heme [15]): 0.5 | Activity (mole fraction) (Heme [16]): 0.5 | half-life [17]: 16.7 min | microsomal CLint [18]: 82.8 µL/min/mg | IC50 (Plasmodium falciparum [3]): 12.5 nM | IC50 (Plasmodium falciparum [4]): 5.24 nM

Cc1cc(N2CCN(C)CC2)nc(NCc2cc(Nc3ccnc4cc(Cl)ccc34)ccc2F)n1
IC50 (CHO): 58200 nM | selectivity ratio (in vitro [1]): 3800 | selectivity ratio (in vitro [2]): 3160 | IC50 (Plasmodium falciparum [3]): 15.3 nM | IC50 (Plasmodium falciparum [4]): 18.4 nM

CCN(CC)CCCC(C)Nc1ccnc2cc(Cl)ccc12 (stereo unspecified) [CHLOROQUINE]
Activity (Plasmodium berghei [19]): 100% | Activity (Plasmodium berghei [20]): 100% | Activity (Plasmodium berghei [21]): 100% | Activity (Plasmodium berghei [22]): 99.2% | Activity (Plasmodium berghei [23]): Active | Activity (Plasmodium berghei [24]): Active | MST (Plasmodium berghei [25]): 28 days | MST (Plasmodium berghei [26]): 28 days | Activity (Plasmodium berghei [27]): inactive

Cc1cc(Cl)nc(NCc2cc(Nc3ccnc4cc(Cl)ccc34)ccc2F)n1
IC50 (Plasmodium falciparum [3]): 231 nM | IC50 (Plasmodium falciparum [4]): 297 nM

NCc1cc(Nc2ccnc3cc(Cl)ccc23)ccc1F
IC50 (CHO): 31300 nM | selectivity ratio (in vitro [1]): 680 | selectivity ratio (in vitro [2]): 533 | IC50 (Plasmodium falciparum [3]): 46.1 nM | IC50 (Plasmodium falciparum [4]): 58.7 nM

CCN1CCN(c2cc(C)nc(NCc3cc(Nc4ccnc5cc(Cl)ccc45)ccc3F)n2)CC1
IC50 (CHO): 80300 nM | selectivity ratio (in vitro [1]): 2780 | selectivity ratio (in vitro [2]): 3430 | IC50 (Plasmodium falciparum [3]): 28.9 nM | IC50 (Plasmodium falciparum [4]): 23.4 nM

CCN1CCN(c2nc(C)cc(NCc3cc(Nc4ccnc5cc(Cl)ccc45)ccc3F)n2)CC1
IC50 (Plasmodium falciparum [3]): 11.2 nM | IC50 (Plasmodium falciparum [4]): 7.63 nM

Cc1cc(NCc2cc(Nc3ccnc4cc(Cl)ccc34)ccc2F)nc(N2CCSCC2)n1
IC50 (CHO): 15200 nM | selectivity ratio (in vitro [1]): 664 | selectivity ratio (in vitro [2]): 459 | IC50 (Plasmodium falciparum [3]): 22.8 nM | IC50 (Plasmodium falciparum [4]): 33.1 nM

CCN(CC)Cc1cc(Nc2ccnc3cc(Cl)ccc23)ccc1O [AMODIAQUINE]
Activity (Plasmodium berghei [19]): 100% | Activity (Plasmodium berghei [20]): 100% | Activity (Plasmodium berghei [21]): 100% | Activity (Plasmodium berghei [22]): 100% | Activity (Plasmodium berghei [23]): Active | Activity (Plasmodium berghei [24]): Active | MST (Plasmodium berghei [25]): 28 days | MST (Plasmodium berghei [26]): 28 days | Activity (Plasmodium berghei [28]): Active | half-life [17]: 5.4 min | microsomal CLint [18]: 431 µL/min/mg

Cc1cc(NCc2cc(Nc3ccnc4cc(Cl)ccc34)ccc2F)nc(Cl)n1
IC50 (Plasmodium falciparum [3]): 183 nM | IC50 (Plasmodium falciparum [4]): 214 nM

Cc1cc(N2CCCCC2)nc(NCc2cc(Nc3ccnc4cc(Cl)ccc34)ccc2F)n1
Ratio IC50 (Plasmodium falciparum [29]): 47.3 | Ratio IC50 (Plasmodium falciparum [30]): 2.8 | IC50 (CHO): 3180 nM | Activity (Plasmodium berghei [5]): 100% | Activity (Plasmodium berghei [6]): 100% | Activity (Plasmodium berghei [7]): 100% | Activity (Plasmodium berghei [8]): 100% | Activity (Plasmodium berghei [9]): Active | Activity (Plasmodium berghei [31]): Active | MST (Plasmodium berghei [10]): 28 days | MST (Plasmodium berghei [11]): 28 days | Activity (Plasmodium berghei [12]): inactive | Activity (Plasmodium berghei [32]): Active | selectivity ratio (in vitro [1]): 237 | selectivity ratio (in vitro [2]): 680 | IC50 (Plasmodium falciparum [3]): 13.4 nM | IC50 (Plasmodium falciparum [4]): 4.69 nM

Cc1cc(N2CCSCC2)nc(NCc2cc(Nc3ccnc4cc(Cl)ccc34)ccc2F)n1
IC50 (CHO): 2710 nM | selectivity ratio (in vitro [1]): 362 | selectivity ratio (in vitro [2]): 169 | IC50 (Plasmodium falciparum [3]): 7.47 nM | IC50 (Plasmodium falciparum [4]): 16 nM

Cc1cc(NCc2cc(Nc3ccnc4cc(Cl)ccc34)ccc2F)nc(N2CCCCC2)n1
IC50 (Plasmodium falciparum [3]): 13.8 nM | IC50 (Plasmodium falciparum [4]): 17.2 nM

Cc1cc(NCc2cc(Nc3ccnc4cc(Cl)ccc34)ccc2F)nc(N2CCOCC2)n1
IC50 (CHO): 14600 nM | selectivity ratio (in vitro [1]): 544 | selectivity ratio (in vitro [2]): 437 | IC50 (Plasmodium falciparum [3]): 26.7 nM | IC50 (Plasmodium falciparum [4]): 33.3 nM

Cc1cc(NCc2cc(Nc3ccnc4cc(Cl)ccc34)ccc2F)nc(N2CCCCCC2)n1
IC50 (Plasmodium falciparum [3]): 16.9 nM | IC50 (Plasmodium falciparum [4]): 27.2 nM

C[C@H]1[C@H](OC(=O)CCC(=O)O)O[C@@H]2O[C@@]3(C)CC[C@H]4[C@H](C)CC[C@@H]1[C@@]24OO3 [ARTESUNATE]
IC50 (Plasmodium falciparum [3]): 10 nM | IC50 (Plasmodium falciparum [4]): 13 nM

Cc1cc(N2CCCCCC2)nc(NCc2cc(Nc3ccnc4cc(Cl)ccc34)ccc2F)n1
IC50 (Plasmodium falciparum [3]): 148 nM | IC50 (Plasmodium falciparum [4]): 67.5 nM

Cc1cc(NCc2cc(Nc3ccnc4cc(Cl)ccc34)ccc2F)nc(N2CCCC2)n1
IC50 (CHO): 3800 nM | selectivity ratio (in vitro [1]): 306 | selectivity ratio (in vitro [2]): 462 | IC50 (Plasmodium falciparum [3]): 12.4 nM | IC50 (Plasmodium falciparum [4]): 8.23 nM

Cc1cc(N2CCCC2)nc(NCc2cc(Nc3ccnc4cc(Cl)ccc34)ccc2F)n1
IC50 (Plasmodium falciparum [3]): 89 nM | IC50 (Plasmodium falciparum [4]): 74.9 nM

Cc1cc(N2CCN(c3ccccc3)CC2)nc(NCc2cc(Nc3ccnc4cc(Cl)ccc34)ccc2F)n1
IC50 (CHO): 17500 nM | selectivity ratio (in vitro [1]): 251 | selectivity ratio (in vitro [2]): 282 | IC50 (Plasmodium falciparum [3]): 69.8 nM | IC50 (Plasmodium falciparum [4]): 62.2 nM

Cc1cc(NCc2cc(Nc3ccnc4cc(Cl)ccc34)ccc2F)nc(N2CCN(c3ccccc3)CC2)n1
IC50 (CHO): 17400 nM | selectivity ratio (in vitro [1]): 981 | selectivity ratio (in vitro [2]): 555 | IC50 (Plasmodium falciparum [3]): 17.7 nM | IC50 (Plasmodium falciparum [4]): 31.3 nM
